Experimental data from ChEMBL document CHEMBL1201862, “PubChem BioAssay data set” (2004).
Active and inactive are the calls of the source.

Tested on: INS1
Assay: INS-1E survival protection against cytokine death – cell-based, luminescence, retest, dose response (AID 449756);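 further: cell death triggered by IL-1 beta plus TNF-alpha plus IFN-gamma mixture; protective hits raise ATP signal compared with cytokine alone wells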
Assay type: functional
Conditions: Rattus norvegicus

Compound | AC50
O=C(NCC#CCSc1nnc(-c2cccc3ccccc23)o1)c1cccs1 | 2.51 µM (active)
CC#CC[N+](C)(C)CCCCCCCC | 28.7 µM (active)

Target: Cytochrome P450 2C9 (Homo sapiens, UniProt P11712)
Conditions: not given

Sequence of Cytochrome P450 2C9 (P11712 whole entry): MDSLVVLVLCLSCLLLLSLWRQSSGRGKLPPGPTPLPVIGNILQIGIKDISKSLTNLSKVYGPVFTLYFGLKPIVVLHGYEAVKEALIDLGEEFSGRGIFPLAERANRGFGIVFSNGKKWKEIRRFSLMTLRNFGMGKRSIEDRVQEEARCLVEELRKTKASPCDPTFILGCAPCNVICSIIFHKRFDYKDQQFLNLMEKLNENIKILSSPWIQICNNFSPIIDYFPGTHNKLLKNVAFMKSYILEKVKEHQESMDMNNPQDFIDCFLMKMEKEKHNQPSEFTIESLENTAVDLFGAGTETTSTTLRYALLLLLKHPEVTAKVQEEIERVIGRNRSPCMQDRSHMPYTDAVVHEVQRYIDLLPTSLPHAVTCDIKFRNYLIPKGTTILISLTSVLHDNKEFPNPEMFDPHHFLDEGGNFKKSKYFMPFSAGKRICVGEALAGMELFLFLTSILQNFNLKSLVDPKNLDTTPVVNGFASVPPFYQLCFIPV

Compound | AC50
Cc1ccc(/C=C/C(=O)NC(=S)Nc2ccccc2C(=O)NC2CCCCC2)cc1 | 7.08 µM (inconclusive)
c1csc(CNc2nc(-c3ccc4c(c3)OCO4)nc3ccccc23)c1 | 1.58 µM (inconclusive)
N#CCCn1c(=O)c(-c2ccccc2)nc2cnc(Oc3cccc(Cl)c3)nc21 | 7.94 µM (inconclusive)
NCCSCc1ccccc1Cl | 3.98 µM (inconclusive)
COc1ccc(Oc2ncc3nc(-c4ccc(Cl)cc4)c(=O)n(CCC#N)c3n2)cc1 | 7.94 µM (inconclusive)
C=CCN(CC=C)C(=S)NC(=O)c1ccc(OC)c(Br)c1 | 15.8 µM (inconclusive)
O=C(NNC(=O)c1ccc2c(c1)C(=O)N(C1CCCCC1)C2=O)c1cccnc1 | 15.8 µM (inconclusive)
O=C(O)CSc1cc(-c2ccccc2)nc2ccccc12 | 3.16 µM (inconclusive)

Target: T1, Heat shock factor protein 1 (Mus musculus, UniProt P38532)
T1 sequence (P38532 whole entry): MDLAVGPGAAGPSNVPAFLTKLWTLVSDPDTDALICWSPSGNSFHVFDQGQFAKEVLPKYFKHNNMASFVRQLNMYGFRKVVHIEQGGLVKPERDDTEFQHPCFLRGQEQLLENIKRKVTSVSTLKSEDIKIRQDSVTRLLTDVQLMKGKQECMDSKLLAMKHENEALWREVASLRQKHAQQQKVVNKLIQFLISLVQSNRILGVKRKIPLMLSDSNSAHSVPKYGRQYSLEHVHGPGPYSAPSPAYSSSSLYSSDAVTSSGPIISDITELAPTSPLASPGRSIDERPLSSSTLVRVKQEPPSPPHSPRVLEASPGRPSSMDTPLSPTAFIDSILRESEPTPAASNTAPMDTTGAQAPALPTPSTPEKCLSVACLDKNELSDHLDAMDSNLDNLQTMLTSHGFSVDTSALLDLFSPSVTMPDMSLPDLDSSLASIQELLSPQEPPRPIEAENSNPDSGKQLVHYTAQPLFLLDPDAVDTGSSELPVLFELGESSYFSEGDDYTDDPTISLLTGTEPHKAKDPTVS
Assay: decrease of HSF1-responsive luciferase luminescence – cell-based, NIH3T3, dose retest, confirmation (AID 2382);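 further: NIH3T3 fibroblasts with HSF1-driven luciferase reporter stressed by proteasome inhibitor MG132; luminescence from HSF1-driven luciferase expression after 8 hours of MG132 stress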
Assay type: functional
Conditions: not given

Compound | EC50
CSCCC(NS(=O)(=O)c1cccs1)C(=O)NCc1ccccc1 (centres undefined) | > 195 µM (not active)
COc1ccc(CNC(C)CCc2ccccc2)cc1 (centres undefined) | > 195 µM (not active)
CCOc1ccc(CNC(=O)CCS(=O)(=O)c2ccc3c(c2)oc(=O)n3C)cc1 | > 195 µM (not active)
Cc1ccc(CN2CCN(Cc3cc4ccccc4o3)CC2CCO)cc1 (centres undefined) | > 195 µM (not active)
COc1ccc(C(=O)CSc2nc(C)cc(O)n2)cc1C | > 195 µM (not active)
Cc1nc2ccc(NC(=O)N3CCSCC3)cc2s1 | > 195 µM (not active)
Cc1cccc(N(C(=O)c2ccco2)C(C(=O)NC2CCCC2)c2cccnc2)c1C (centres undefined) | > 195 µM (not active)
Cc1cc2cc(CCNC(=O)C(=O)c3c[nH]c4ccccc34)c(O)nc2cc1C | 21.1 µM (active)
CC(C)CC(C(=O)Nc1cccc(O)c1)N1C(=O)c2ccccc2C1=O (centres undefined) | > 195 µM (not active)
COC(=O)c1ccc(N=NNc2ccc(C(=O)OC)cc2)cc1 | > 195 µM (not active)
COC(=O)c1cc(COc2ccc3oc(C)c(C(=O)OC(C)C)c3c2)c(C)o1 | > 195 µM (not active)
O=S(=O)(N1CCCCC1)n1nnc2ccccc21 | > 195 µM (not active)
CCn1cc(C(=O)NCCCN2CC(C)CC(C)C2)c(=O)c2cc(S(=O)(=O)N(C)C)ccc21 (centres undefined) | > 195 µM (not active)
CC(=O)OC1(c2ccccc2)CCN(C)C2CCCCC21 (centres undefined) | > 195 µM (not active)
C/C(=N\OCC(=O)Nn1c(=O)[nH]c2ccccc2c1=O)c1cccs1 | > 195 µM (not active)
CCn1nc(C)c(/C=N/NC(=O)c2c[nH]c3ccccc23)c1C | > 195 µM (not active)
O=C1OC2(CCCCC2)OC(O)=C1/C=N/c1nccs1 | > 195 µM (not active)

Target: T2, Rac GTPase-activating protein 1 (Homo sapiens, UniProt Q9H0H5)
T2 sequence (Q9H0H5 whole entry): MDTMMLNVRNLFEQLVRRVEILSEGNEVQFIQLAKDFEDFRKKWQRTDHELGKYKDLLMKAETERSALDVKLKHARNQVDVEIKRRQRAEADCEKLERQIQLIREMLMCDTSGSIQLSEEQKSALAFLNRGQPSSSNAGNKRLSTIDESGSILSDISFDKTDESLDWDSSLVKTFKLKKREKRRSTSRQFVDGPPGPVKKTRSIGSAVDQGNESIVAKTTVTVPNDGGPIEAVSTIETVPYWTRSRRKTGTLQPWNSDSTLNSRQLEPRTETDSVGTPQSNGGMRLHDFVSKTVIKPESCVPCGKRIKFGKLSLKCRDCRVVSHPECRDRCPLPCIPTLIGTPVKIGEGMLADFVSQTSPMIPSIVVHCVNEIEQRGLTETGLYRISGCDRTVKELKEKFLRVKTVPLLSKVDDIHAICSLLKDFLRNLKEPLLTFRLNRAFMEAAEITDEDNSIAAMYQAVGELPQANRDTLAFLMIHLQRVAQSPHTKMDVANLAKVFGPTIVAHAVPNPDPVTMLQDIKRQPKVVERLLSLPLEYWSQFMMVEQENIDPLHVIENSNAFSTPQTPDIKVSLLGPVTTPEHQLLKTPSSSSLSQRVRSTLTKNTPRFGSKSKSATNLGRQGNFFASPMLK
Assay: blockers of MgcRacGAP-driven Rac1 GTP hydrolysis – biochemical, ADP Hunter fluorescence, primary and confirmatory, confirmation (AID 624330)
Assay type: functional
Conditions: not given

Compound | IC50
COc1ccc(NCc2ccsc2)cc1 | 29.6 µM (active)
Cc1ccc(CNc2ccc(N3CCOCC3)cc2)s1 | 20.1 µM (active)
CCN(CC)CCNCC(=O)Nc1ccc(Oc2ccccc2)cc1 | 119 µM (active)
COc1cc(CNc2ccc(N3CCOCC3)cc2)cc(Br)c1OC | 15.4 µM (active)
CCN(CC)c1ccc(NC(=O)CSC(=O)c2ccccc2)cc1 | 83.9 µM (active)
COc1ccc(CN2CCN(C(C)C(=O)N(C)Cc3cccc(F)c3)CC2)cc1OC (centres undefined) | 76.2 µM (active)
COc1ccc(NC(=O)C(C)N2CCN(C)CC2)cc1 (centres undefined) | 78.1 µM (active)
O=C(CN1CCCCCC1)NCC1CCCO1 (centres undefined) | 117 µM (active)
CC1CC(C)CN(C2CCN(Cc3cccnc3)CC2)C1 (centres undefined) | 49.6 µM (active)
CCC(=O)c1ccccc1OCCN1CCN(CC)CC1 | 88.2 µM (active)
CCOC(=O)c1[nH]c2cc(OC)c(OC)cc2c1N | 35 µM (active)
O=[N+]([O-])c1ccc2c(c1)Cc1cc(O)ccc1-2 | 16.7 µM (active)
O=C(CSc1nnc(C2CC2)n1C1CC1)N1CCN(c2ccc(O)cc2)CC1 | 30.2 µM (active)
CCN(CC)S(=O)(=O)c1cccc(C(=O)N/N=C/c2ccc(OC)c(O)c2)c1 | 76.7 µM (active)

Tested on: not listed separately
Assay: NIH3T3 cell viability loss – ATP luminescence, mouse fibroblasts, counter-screen, dose response (AID 2010);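 further: cells exposed to compound for about 90 hours before reading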
Assay type: functional, cell-based
Conditions: not given

Compound | EC50
O=[N+]([O-])c1cc(-c2nnc(Nc3ccccc3)c3ccccc23)ccc1N1CCOCC1 | > 30 µM (not active)
Cc1ccc(C)c(NS(=O)(=O)c2cc(C(=O)N3CCc4ccccc4C3)ccc2Cl)c1 | > 60 µM (not active)
c1ccc(COc2ccc(OCCN3CCCC3)cc2)cc1 | 13.1 µM (active)
Cc1nn2c(SCC(=O)c3cccs3)cc(C(C)(C)C)nc2c1-c1ccccc1 | > 60 µM (not active)
Cc1ccccc1C1c2[nH]c3ccccc3c2CCN1Cc1cccn1-c1ncccn1 (centres undefined) | > 60 µM (not active)
O=S(=O)(N1CCCCC1)N1CCN(CC(O)COc2ccc3cc(Br)ccc3c2)CC1 (centres undefined) | > 60 µM (not active)
COc1ccc(OCCOCCN2CCc3ccccc3C2)cc1 | > 60 µM (not active)
N#C/C(=C\c1c(Cl)cccc1Cl)c1nn(-c2ccccc2)c(-n2cccc2)c1C#N | > 60 µM (not active)
CCOC(=O)c1cn2nc(-c3ccc(OC)cc3)cc2nc1C1CCN(C(=O)OC(C)(C)C)CC1 | > 60 µM (not active)
c1ccc(Cn2nnnc2C(c2cccnc2)N2CCN(c3ccccc3)CC2)cc1 (centres undefined) | > 60 µM (not active)
CC(C)CCNc1nc(N2CCCC2)c2c(c1C#N)CCN(C)C2 | > 60 µM (not active)
COc1ccc(C2=NN(C(=O)c3cccs3)C(c3ccccc3O)C2)cc1 (centres undefined) | > 60 µM (not active)
Cc1cc(C)c(OCCCCN(C)C)c(Br)c1 | > 60 µM (inconclusive)

Tested on: not listed separately
Assay: viability of uninfected HEp-2 cells – cell-based, HTS, cytotoxicity control for RSV inhibitor project, dose response (AID 2410)
Assay type: functional
Conditions: human respiratory syncytial virus

Compound | CC50
CCCNC(=O)c1c(N)n(Cc2ccco2)c2nc3ccccc3nc12 | 29.8 µM (active)
Cc1cc(/C=C2\C(=N)N3N=C(C(C)C)SC3=NC2=O)c(C)n1Cc1ccccc1 | 21.5 µM (active)
CC1CCCN(S(=O)(=O)c2ccc(NC(=O)c3cccc(-n4cnnn4)c3)cc2)C1 (centres undefined) | 16.4 µM (active)
Cc1ccc(-c2nc(Nc3ccc(N4CCOCC4)cc3)c3ccccc3n2)cc1 | 18.6 µM (active)
Cc1nc2c(ccc3nc(NC(=O)C(c4ccccc4)c4ccccc4)sc32)s1 | 5.99 µM (active)
CCOc1ccc(-c2cn(S(=O)(=O)c3cccc4nsnc34)nc2N)cc1 | > 50 µM (active)
O=C(COc1ccccc1)Nc1ccc(N2CCN(C(=O)c3ccco3)CC2)cc1 | 23.6 µM (active)
Cc1cc(C(=O)CSc2ccc(F)cc2)cc(C)c1O | 22 µM (active)
COc1cccc(-c2nn(-c3ccccc3)cc2/C=C\C(=O)c2cccs2)c1 | 24.3 µM (active)
CCOc1ccccc1/N=N/c1c(C)[nH]n(C(N)=S)c1=O | 33.1 µM (active)

Tested on: Streptococcus sp. 'group A'
Assay: Streptococcus pyogenes SK(-)GAS viability under kanamycin – luminescence, BacTiterGlo, confirmation, counter-screen for streptokinase expression inhibitor project, dose response (AID 1900)
Assay type: functional, organism-based
Conditions: not given

Compound | EC50
COCCSc1ccccc1C(=O)N1CCCC(C)C1 (centres undefined) | > 150 µM (not active)

Tested on: not listed separately
Assay: Trypanosoma cruzi growth suppression in host cells – NIH3T3 host cells, beta-gal luminescence, confirmation (AID 2044);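 further: intracellular parasites grown in NIH/3T3 mouse fibroblasts as host cells; luminescent beta-galactosidase reporter signal from transgenic T. cruzi replicating inside host cells; inhibitors lower the luminescence signal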
Assay type: functional, cell-based
Conditions: not given

Compound | EC50
O=[N+]([O-])c1cc(-c2nnc(Nc3ccccc3)c3ccccc23)ccc1N1CCOCC1 | 1.28 µM (active)
Cc1ccc(C)c(NS(=O)(=O)c2cc(C(=O)N3CCc4ccccc4C3)ccc2Cl)c1 | 2.06 µM (active)
c1ccc(COc2ccc(OCCN3CCCC3)cc2)cc1 | 1.18 µM (active)
Cc1nn2c(SCC(=O)c3cccs3)cc(C(C)(C)C)nc2c1-c1ccccc1 | 2.66 µM (active)
Cc1ccccc1C1c2[nH]c3ccccc3c2CCN1Cc1cccn1-c1ncccn1 (centres undefined) | 1.26 µM (active)
O=S(=O)(N1CCCCC1)N1CCN(CC(O)COc2ccc3cc(Br)ccc3c2)CC1 (centres undefined) | 2.31 µM (active)
COc1ccc(OCCOCCN2CCc3ccccc3C2)cc1 | 0.141 µM (active)
N#C/C(=C\c1c(Cl)cccc1Cl)c1nn(-c2ccccc2)c(-n2cccc2)c1C#N | 1.29 µM (active)
CCOC(=O)c1cn2nc(-c3ccc(OC)cc3)cc2nc1C1CCN(C(=O)OC(C)(C)C)CC1 | 1.55 µM (active)
Cc1cnc(C(=O)Nc2cccc3cccnc23)cn1 | 2.22 µM (active)
c1ccc(Cn2nnnc2C(c2cccnc2)N2CCN(c3ccccc3)CC2)cc1 (centres undefined) | 0.534 µM (active)
CC(C)CCNc1nc(N2CCCC2)c2c(c1C#N)CCN(C)C2 | 0.1 µM (active)
COc1ccc(C2=NN(C(=O)c3cccs3)C(c3ccccc3O)C2)cc1 (centres undefined) | 3.01 µM (active)
Cc1cc(C)c(OCCCCN(C)C)c(Br)c1 | 0.46 µM (active)

Target: Cytochrome P450 3A4 (Homo sapiens, UniProt P08684);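 further: CYP3A4 tested as one member of a cytochrome P450 panel screen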
Conditions: not given

Sequence of Cytochrome P450 3A4 (P08684 whole entry): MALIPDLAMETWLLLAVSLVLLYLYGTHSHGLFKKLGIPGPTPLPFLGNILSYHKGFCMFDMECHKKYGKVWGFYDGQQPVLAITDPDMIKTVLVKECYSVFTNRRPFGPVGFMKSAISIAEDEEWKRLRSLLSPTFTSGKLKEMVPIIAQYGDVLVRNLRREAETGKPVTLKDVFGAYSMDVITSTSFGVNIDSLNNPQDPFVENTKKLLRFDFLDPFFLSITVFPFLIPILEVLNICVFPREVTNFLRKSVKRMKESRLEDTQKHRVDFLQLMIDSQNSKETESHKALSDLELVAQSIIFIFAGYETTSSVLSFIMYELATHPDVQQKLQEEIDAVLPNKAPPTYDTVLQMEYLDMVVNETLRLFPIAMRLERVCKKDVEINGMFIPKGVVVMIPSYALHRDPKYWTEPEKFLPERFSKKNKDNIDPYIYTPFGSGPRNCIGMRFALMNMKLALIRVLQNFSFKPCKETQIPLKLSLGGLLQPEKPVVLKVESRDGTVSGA

Compound | AC50
Cc1ccccc1-c1nc(N(C)Cc2ccco2)c2ccccc2n1 | 25.1 µM (inconclusive)
CCOC(=O)CSc1ncc(OC)c(Sc2ccc(Cl)cc2)n1 | 25.1 µM (inconclusive)
CCOC(=O)c1c(CC(C)C)csc1NC=O | 22.4 µM (inconclusive)
CCNc1ncc2nc(CCc3ccccc3)c(=O)n(CCOC)c2n1 | 15.8 µM (inconclusive)

Tested on: Streptococcus
Assay: GAS UMAA2166 growth inhibition – luminescence, BacTiterGlo, counter-screen for streptokinase expression inhibitor project, dose response (AID 1915);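 further: potency for reduction of bacterial viability or growth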
Assay type: functional, organism-based
Conditions: not given

Compound | EC50
COCCSc1ccccc1C(=O)N1CCCC(C)C1 (centres undefined) | > 150 µM (not active)
